Test results published in patent publication US20260209219A1, “SUBSTITUTED TETRAHYDROPYRROLO-PYRIDINONE COMPOUNDS AND THEIR USE IN TREATING MEDICAL CONDITIONS” (Karuna Therapeutics, Inc., priority 2022, published 2026).

Columns and labels:
human M4 receptor = target: T1, human M4 receptor (Homo sapiens, UniProt P08173); assay: M4 GTPγS PAM assay; type: biochemical; conditions: membranes of CHO-K1 cells stably expressing human M4; EC20 acetylcholine 40 nM
T1 construct: expressed in transfected cells; host or cells: CHO-K1 cells (membrane preparation)
T1 sequence (P08173 1-479): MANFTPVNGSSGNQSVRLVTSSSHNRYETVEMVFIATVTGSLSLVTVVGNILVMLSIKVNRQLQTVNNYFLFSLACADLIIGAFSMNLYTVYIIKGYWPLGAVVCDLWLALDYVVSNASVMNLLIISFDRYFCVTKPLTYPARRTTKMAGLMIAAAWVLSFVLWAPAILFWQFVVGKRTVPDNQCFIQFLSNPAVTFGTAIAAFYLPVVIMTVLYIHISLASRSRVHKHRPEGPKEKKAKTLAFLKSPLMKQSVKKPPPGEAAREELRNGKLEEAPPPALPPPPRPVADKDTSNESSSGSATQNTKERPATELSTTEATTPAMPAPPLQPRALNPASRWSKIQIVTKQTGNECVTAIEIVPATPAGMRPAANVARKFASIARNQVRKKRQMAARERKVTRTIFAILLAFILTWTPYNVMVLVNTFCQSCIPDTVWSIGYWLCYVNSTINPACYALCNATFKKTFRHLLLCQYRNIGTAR
Protocol: The M4 GTPγS PAM method was used. Membranes were prepared for GTPgS binding assays from CHO-K1 cells stably expressing human M4 receptor. Briefly, cells were grown in 5-layer cell culture flasks. Cells were washed with 50 mL of PBS and then dissociated with 0.05% trypsin. Dissociated cells were then collected by centrifugation at 650×g for 8 minutes at 4° C. Pellets were washed again in PBS by centrifugation and resuspended in 30 mL of 20 mM HEPES, 10 mM EDTA, pH 7.4. After sitting on ice for 30 min, membranes were collected by centrifugation at 50000×g for 15′ at 4° C., resuspended in 30 mL of 20 mM HEPES, 0.1 mM EDTA, pH 7.4 and collected again by centrifugation. Pellets were then washed twice by centrifugation in 30 mL of 20 mM HEPES, pH 7.4, and stored at −80° C. until the day of the assay. On the day of the assay, pellets were thawed on ice and resuspended in 1 mL of 20 mM HEPES, pH 7.4, 10 mM MgCl2, 100 mM NaCl using dounce homogenization. Membrane protein concentration is determined by BCA protein assay (Promega, Madison, WI) according to Promega guidelines.
On the day of the assay, serial dilutions of test PAM compounds were brought up in assay buffer (20 mM HEPES, 10 mM MgCl2, 100 mM NaCl) at 4× final assay concentration. […] of membrane homogenates (containing […] of membrane protein) were prepared in assay buffer supplemented with GDP at 4× final assay concentration (final assay concentration of GDP is 5 μM for M2 and 0.1 μM for M4) and dispensed into 96 well polypropylene, U-bottom Greiner plates. […] of vehicle or test PAM compound at 4× of final assay concentration diluted in the assay buffer were added to membrane and plates are incubated for 10-15 minutes at room temperature with gentle shaking. Then, […] of EC20 acetylcholine in assay buffer at 4× final assay concentration was added to assay plates (EC20 final assay concentrations was 40 nM for human M4).
Plates were then incubated, with shaking, for an additional 10-15 minutes. 25 mL of 0.4 nM ^35S-GTP (Perkin Elmer, Waltham, MA) in assay buffer was added to assay mixtures. The binding reaction is left on the shaker for 1 hour at room temperature. Membranes in assay reactions were then transferred to GF/C filter plates (Unifilter, Perkin Elmer) and washed three times using a FilterMate Harvester (Perkin Elmer) with cold assay buffer containing no GDP. Filter plates were then dried at 40° C. overnight followed by the addition of […] of Beta Plate Scintillation liquid. Plates are top and bottom sealed before being read on TopCount scintillation counter (Perkin Elmer, Waltham, MA).

rM4 receptors = target: T2, rM4 receptors (Rattus norvegicus, UniProt P08485); assay: Rat M4 PAM pERK assay; type: cell-based; conditions: CHO cells expressing rM4; with EC20 of acetylcholine (10 nM final)
T2 construct: expressed in transfected cells; host or cells: CHO cells
T2 sequence (P08485 1-478): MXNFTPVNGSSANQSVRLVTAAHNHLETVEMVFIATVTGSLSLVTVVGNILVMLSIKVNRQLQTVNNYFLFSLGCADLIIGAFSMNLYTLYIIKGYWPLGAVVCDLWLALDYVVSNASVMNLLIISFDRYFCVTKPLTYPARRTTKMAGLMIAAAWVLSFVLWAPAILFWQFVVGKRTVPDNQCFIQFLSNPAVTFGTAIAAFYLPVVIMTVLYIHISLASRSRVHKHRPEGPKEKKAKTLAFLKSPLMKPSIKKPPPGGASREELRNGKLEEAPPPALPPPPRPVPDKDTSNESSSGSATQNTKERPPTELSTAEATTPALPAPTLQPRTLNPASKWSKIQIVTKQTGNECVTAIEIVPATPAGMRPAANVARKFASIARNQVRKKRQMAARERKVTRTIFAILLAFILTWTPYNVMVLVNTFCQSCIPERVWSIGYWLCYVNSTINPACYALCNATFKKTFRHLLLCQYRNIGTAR
Protocol: (§1) Chinese hamster ovary (CHO) cells expressing either hM4 or rM4 receptors were frozen in assay ready vials (5×10^6 cells/vial) after bulking-up in culture. The day before an assay, vial(s) were thawed and cells seeded in 384 well white proxiplates at 1000/well for hM4 cells and at 2000/well for rM4 cells, in 10 μL of growth media (Hams/F12 with glutamax and 10% FCS) and incubated overnight at 37° C./5% CO2.
(§2) On the following morning, the growth media was removed by ‘flicking out’ over a bin, patting the inverted plate onto tissue, and then replacing with 10 μL of wash media (Hams/F12 with glutamax and 8 mM HEPES, NB: serum free). Then, the wash media was removed in the same way and replaced with 8 μL/well of the serum free media. Plates were then re-incubated for a further 4 hours at 37° C./5% CO2.
(§3) Compounds for testing were solubilized to 10 mM in DMSO and compound addition plates, consisting of ten-point concentration response curves (CRC) in duplicate points (10 μM top concentration, ½ log dilution series), were prepared by acoustic dispensing and the compound management group.
(§4) After the 4-hour incubation in serum free media, a 4 μL aliquot of the 3× compound solution containing an EC20 of acetylcholine (10 nM final concentration) was added to the cell plate using a 384 well plate to plate transfer. Then, the plate lid was replaced, and the cells incubated for 5 mins at 37° C./5% CO2. Following this final incubation, all cellular processes were stopped by the addition of 4 μL/well of lysis and blocking buffer and plates were incubated for 30 minutes at RT on an orbital shaker (gentle setting). Then, a final addition of 4 μL/well of antibody detection mix, containing both the Europium-Cryptate (donor) and d2 (acceptor) tagged detection components, was added followed by a further 2-hour incubation at RT, and then the plate was read using a TR-FRET (time resolved fluorescence resonance energy transfer) based protocol.

hM4 receptors = target: T3, hM4 receptors (Homo sapiens, UniProt P08173); assay: Human M4 PAM pERK assay; type: cell-based; conditions: CHO cells expressing hM4; with EC20 of acetylcholine (10 nM final)
T3 construct: expressed in transfected cells; host or cells: CHO cells
T3 sequence (P08173 1-479): T1 sequence (P08173 1-479)
Protocol: as §1, §2, §3, §4

Compound	EC50 (human M4 receptor)	EC50 (rM4 receptors)	EC50 (hM4 receptors)
Cc1c2c(n(C)c(=O)c1C)CN(C(=O)C[C@@H]1C[C@H]1c1ccc(C(F)(F)F)cc1)C2 (relative stereo) [Compound I-18, 1,3,4-Trimethyl-6-([trans-2-(2-(4-(trifluoromethyl)phenyl)cyclopropyl)]acetyl)-1,5,6,7-tetrahydro-2H-pyrrolo[3,4-b]pyridin-2-one]	100 to 500 nM	100 to 500 nM	100 to 500 nM
Cc1c2c(n(C)c(=O)c1Cl)CN(C(=O)C[C@@H]1C[C@H]1c1ccc(C(F)(F)F)cc1)C2 (relative stereo) [Compound I-31, 3-Chloro-1,4-dimethyl-6-([trans-2-(2-(4-(trifluoromethyl)phenyl)cyclopropyl)]acetyl)-1,5,6,7-tetrahydro-2H-pyrrolo[3,4-b]pyridin-2-one]	100 to 500 nM	100 to 500 nM	100 to 500 nM
Cc1cc(=O)n(C)c2c1CN(C(=O)CC1CC1c1ccnc(C(F)(F)F)c1)C2 (single isomer, unassigned) [Compound I-1, 1,4-Dimethyl-6-[trans-(2-(2-(2-(trifluoromethyl)pyridin-4-yl)cyclopropyl)]acetyl)-1,5,6,7-tetrahydro-2H-pyrrolo[3,4-b]pyridin-2-one]	–	–	> 2000 nM
Cc1cc(=O)n(C)c2c1CN(C(=O)CC1CC1c1ccnc(C(F)(F)F)c1)C2 (single isomer, unassigned) [Compound I-2]	–	500 to 2000 nM	< 100 nM
Cc1cc(=O)n(C)c2c1CN(C(=O)CC1CC1c1ccc(C(F)(F)F)nc1)C2 (single isomer, unassigned) [Compound I-4]	> 2000 nM	> 2000 nM	> 2000 nM
Cc1cc(=O)n(C)c2c1CN(C(=O)CC1CC1c1ccc(C(F)(F)F)nc1)C2 (single isomer, unassigned) [Compound I-5]	500 to 2000 nM	< 100 nM	100 to 500 nM
Cc1cc(=O)n(C)c2c1CN(C(=O)CC1CC1c1ccc(C(F)(F)F)cc1)C2 (single isomer, unassigned) [Compound I-6]	> 2000 nM	> 2000 nM	> 2000 nM
Cc1cc(=O)n(C)c2c1CN(C(=O)CC1CC1c1ccc(S(=O)(=O)C(F)(F)F)cc1)C2 (single isomer, unassigned) [Compound I-8]	–	> 2000 nM	> 2000 nM
Cc1cc(=O)n(C)c2c1CN(C(=O)CC1CC1c1ccc(S(=O)(=O)C(F)(F)F)cc1)C2 (single isomer, unassigned) [Compound I-9]	–	100 to 500 nM	100 to 500 nM
Cc1cc(=O)n(C)c2c1CN(C(=O)CC1CC1c1cccc(C3COC3)c1)C2 (single isomer, unassigned) [Compound I-13]	> 2000 nM	> 2000 nM	> 2000 nM
Cc1cc(=O)n(C)c2c1CN(C(=O)CC1CC1c1cccc(C3COC3)c1)C2 (single isomer, unassigned) [Compound I-14]	–	100 to 500 nM	100 to 500 nM
Cc1cc(=O)n(C)c2c1CN(C(=O)CC1CC1c1ccc(C3COC3)cc1)C2 (single isomer, unassigned) [Compound I-16]	–	> 2000 nM	> 2000 nM
Cc1cc(=O)n(C)c2c1CN(C(=O)CC1CC1c1ccc(C3COC3)cc1)C2 (single isomer, unassigned) [Compound I-17]	–	100 to 500 nM	< 100 nM
Cc1c2c(n(C)c(=O)c1C)CN(C(=O)CC1CC1c1ccc(C(F)(F)F)cc1)C2 (single isomer, unassigned) [Compound I-19]	–	> 2000 nM	> 2000 nM
Cc1c2c(n(C)c(=O)c1C)CN(C(=O)CC1CC1c1ccc(C(F)(F)F)cc1)C2 (single isomer, unassigned) [Compound I-20]	–	100 to 500 nM	100 to 500 nM
Cc1c2c(n(C)c(=O)c1C)CN(C(=O)CC1CC1c1cc(F)cc(F)c1)C2 (single isomer, unassigned) [Compound I-22]	500 to 2000 nM	> 2000 nM	> 2000 nM
Cc1c2c(n(C)c(=O)c1C)CN(C(=O)CC1CC1c1cc(F)cc(F)c1)C2 (single isomer, unassigned) [Compound I-23]	< 100 nM	< 100 nM	< 100 nM
Cc1c2c(n(C)c(=O)c1F)CN(C(=O)CC1CC1c1ccc(C(F)(F)F)cc1)C2 (single isomer, unassigned) [Compound I-25, 3-Fluoro-1,4-dimethyl-6-([trans-2-(2-(4-(trifluoromethyl)phenyl)cyclopropyl)]acetyl)-1,5,6,7-tetrahydro-2/I-pyrrolo[3,4-b]pyridin-2-one]	100 to 500 nM	> 2000 nM	500 to 2000 nM
Cc1c2c(n(C)c(=O)c1F)CN(C(=O)CC1CC1c1cc(F)cc(F)c1)C2 (single isomer, unassigned) [Compound I-27]	< 100 nM	< 100 nM	< 100 nM
Cc1c2c(n(C)c(=O)c1F)CN(C(=O)CC1CC1c1cc(F)cc(F)c1)C2 (single isomer, unassigned) [Compound I-28]	–	< 100 nM	< 100 nM
COCCc1ccc(C2CC2CC(=O)N2Cc3c(C)cc(=O)n(C)c3C2)cc1 (centres unmarked) [Compound I-11]	–	500 to 2000 nM	100 to 500 nM
Cc1cc(=O)n(C)c2c1CN(C(=O)CC1CC1c1ccc(C3COC3)cc1)C2 (centres unmarked) [Compound I-15]	–	500 to 2000 nM	100 to 500 nM
